From patent publication US20260055083A1, “APOL1 INHIBITORS AND METHODS OF USE” (Maze Therapeutics, Inc., priority 2022, published 2026)

Experiments:
[1] = target: T1, APOL1 G2 (Homo sapiens, UniProt O14791, DEL388-389); experiment: APOL1 G2 HEK293 rescue of cell death caused by overexpression of APOL1 (CellTiter-Glo); assay type: cell-based; details: HEK293/T-REx APOL1 G2 clone #2, doxycycline induction, 17 hours, CellTiter-Glo luminescence; reversal of cell death; geometric mean of at least 2 assay runs
T1 construct: expressed in transfected cells; host or cells: HEK293/T-REx APOL1 G2 clone #2, doxycycline-inducible
T1 sequence (O14791 with tags, fused parts or gaps DEL388-389): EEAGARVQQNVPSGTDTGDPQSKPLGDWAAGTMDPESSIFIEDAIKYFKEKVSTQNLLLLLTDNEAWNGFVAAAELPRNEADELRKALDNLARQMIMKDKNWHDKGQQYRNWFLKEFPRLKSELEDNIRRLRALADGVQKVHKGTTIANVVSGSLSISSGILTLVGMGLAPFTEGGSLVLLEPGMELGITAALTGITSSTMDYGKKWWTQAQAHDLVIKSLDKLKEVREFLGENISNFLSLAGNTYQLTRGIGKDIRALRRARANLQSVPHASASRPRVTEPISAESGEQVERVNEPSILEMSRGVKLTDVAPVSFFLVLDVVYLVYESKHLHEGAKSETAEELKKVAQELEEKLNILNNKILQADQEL
How it was run: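 Doxycycline (6 ng/mL)-induced HEK293/T-REx APOL1 G2 clone seeded at 5,000 cells/well with compound in duplicate 8-point 3-fold series (0.5% DMSO), 17 h at 37 °C. CellTiter-Glo luminescence; EC50 from four-parameter logistic fit, geometric mean of ≥2 runs.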

[2] = target: T1, APOL1 G2; experiment: APOL1 G2 FLIPR calcium influx assay (HEK T-REx/GCaMP6f/APOL1 G2 K6.3 cells); assay type: cell-based; details: HEK293 clone expressing GCaMP6f, doxycycline-induced APOL1 G2; prevention of calcium influx; geometric mean of at least 2 assay runs
How it was run: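 HEK293 clone stably expressing GCaMP6f, APOL1 G2 induced with doxycycline for 6 h; compounds (duplicate 8-point dose response) preincubated 10 min at room temperature in Ca2+-free Tyrode's buffer, pH 7.4. Ca2+ added to 5 mM final, influx read on FLIPR; AC50 is geometric mean of ≥2 runs.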

| Compound | AC50 [2] [nM] | EC50 [1] [nM] |
| --- | --- | --- |
| CC(C(O)c1cc(Cl)cc(C#N)c1)N1C[C@@H](COc2ccc(S(C)(=O)=O)cc2)C[C@H]1C (single isomer, unassigned) [Compound 98, 3-chloro-5-[(1R,2S or 1S,2R or 1S,2S or 1R,2R)-1-hydroxy-2-[(2R,4S)-4-[(4-methanesulfonylphenoxy)methyl]-2-methylpyrrolidin-1-yl]propyl]benzonitrile] | 2840 | > 10000 |
| CC(C(O)c1cc(Cl)cc(C#N)c1)N1C[C@@H](COc2ccc(S(C)(=O)=O)cc2)C[C@H]1C (single isomer, unassigned) [Compound 99, 3-chloro-5-[(1S,2R or 1R,2S or 1S,2S or 1R,2R)-1-hydroxy-2-[(2R,4S)-4-[(4-methanesulfonylphenoxy)methyl]-2-methylpyrrolidin-1-yl]propyl]benzonitrile] | 1690 | 252 |
| CC(C(O)c1cc(Cl)cc(C#N)c1)N1C[C@@H](COc2ccc(S(C)(=O)=O)cc2)[C@H](C)C1 (single isomer, unassigned) [Compound 100, 3-chloro-5-((1R,2S or 1S,2R)-1-hydroxy-2-((3S,4S)-3-methyl-4-((4-(methylsulfonyl)phenoxy)methyl)pyrrolidin-1-yl)propyl)benzonitrile] | 575 | 948 |
| CC(C(O)c1cc(Cl)cc(C#N)c1)N1C[C@@H](COc2ccc(S(C)(=O)=O)cc2)[C@H](C)C1 (single isomer, unassigned) [Compound 101, 3-chloro-5-((1S,2R or 1R,2S)-1-hydroxy-2-((3S,4S)-3-methyl-4-((4-(methylsulfonyl)phenoxy)methyl)pyrrolidin-1-yl)propyl)benzonitrile] | 765 | > 10000 |
| CC(C(O)c1cc(Cl)cc(C#N)c1)N1C[C@@H](COc2ccc(S(C)(=O)=O)cc2)[C@H](C)C1 (single isomer, unassigned) [Compound 102, 3-chloro-5-((1R,2R or 1S,2S)-1-hydroxy-2-((3S,4S)-3-methyl-4-((4-(methylsulfonyl)phenoxy)methyl)pyrrolidin-1-yl)propyl)benzonitrile] | 744 | > 10000 |
| CC(C(O)c1cc(Cl)cc(C#N)c1)N1C[C@@H](COc2ccc(S(C)(=O)=O)cc2)[C@H](C)C1 (single isomer, unassigned) [Compound 103, 3-chloro-5-((1S,2S or 1R,2R)-1-hydroxy-2-((3S,4S)-3-methyl-4-((4-(methylsulfonyl)phenoxy)methyl)pyrrolidin-1-yl)propyl)benzonitrile] | 905 | 655 |
| C[C@@H]1CN(CC(O)c2cccc(C#N)c2)C[C@H]1COc1ccc(S(C)(=O)=O)nc1 (single isomer, unassigned) [Compound 105, 3-[(1S or 1R)-1-hydroxy-2-[(3S,4S)-3-{[(6-methanesulfonylpyridin-3-yl)oxy]methyl}-4-methylpyrrolidin-1-yl]ethyl]benzonitrile] | > 10000 | > 10000 |

Second part, led by results:

| AC50 [2] [nM] | Compound | EC50 [1] [nM] |
| --- | --- | --- |
| > 10000 | C[C@@H]1CN(CC(O)c2cccc(C#N)c2)C[C@H]1COc1ccc(S(C)(=O)=O)nc1 (single isomer, unassigned) [Compound 106, 3-[(1R or 1S)-1-hydroxy-2-[(3S,4S)-3-{[(6-methanesulfonylpyridin-3-yl)oxy]methyl}-4-methylpyrrolidin-1-yl]ethyl]benzonitrile] | > 10000 |
| 1700 | C[C@@H]1CN(C(CO)Cc2cccc(Cl)c2)C[C@H]1COc1ccc(S(C)(=O)=O)cc1 (single isomer, unassigned) [Compound 116, (2R or 2S)-3-(3-chlorophenyl)-2-[(3S,4S)-3-[(4-methanesulfonylphenoxy)methyl]-4-methylpyrrolidin-1-yl]propan-1-ol] | > 10000 |
| 483 | C[C@@H]1CN(C(CO)Cc2cccc(Cl)c2)C[C@H]1COc1ccc(S(C)(=O)=O)cc1 (single isomer, unassigned) [Compound 117, (2S or 2R)-3-(3-chlorophenyl)-2-[(3S,4S)-3-[(4-methanesulfonylphenoxy)methyl]-4-methylpyrrolidin-1-yl]propan-1-ol] | 755 |
